From patent publication US20160137746A1, “METHODS FOR TREATING HIGH CARDIOVASCULAR RISK PATIENTS WITH HYPERCHOLESTEROLEMIA” (Sanofi Biotechnology, priority 2014, published 2016)
Values joined by “and” are separate entries in the source; they are usually repeats but may differ in a detail not shown here. Equal entries are not always repeated.

Columns and labels:
[1] = tested on: high cardiovascular risk patients with hypercholesterolemia; assay: ODYSSEY LONG TERM: lipid efficacy of alirocumab 150 mg Q2W vs placebo; assay type: in vivo, human
Description: Patients were stratified according to heFH population, prior history of MI or ischemic stroke, statin treatment and geographic region. Patients at high cardiovascular risk were defined as 1) having heFH (who may or may not have CHD/CHD risk equivalents) or 2) no prior diagnosis of heFH but having hypercholesterolemia together with established CHD or CHD risk equivalents.
Primary analyses of efficacy endpoints were conducted using an ITT approach (based on the ITT population defined above), including all lipid data, regardless of whether the patient was continuing therapy or not. This corresponds to ITT estimands, defined for primary and key secondary endpoints. In addition, analyses were also conducted using an on-treatment approach (based on the mITT population defined above), including lipid data collected during the efficacy treatment period. This corresponds to on-treatment estimands of key secondary endpoints.
With regards to the primary efficacy analysis (ITT approach), the percent change in calculated LDL-C from baseline to Week 24 was analyzed using a mixed-effect model with repeated measures (MMRM) approach. All post-baseline data available from Week 4 to Week 52 analysis windows were used and missing data were accounted for by the MMRM. […] This model provided baseline adjusted least-squares means (LSmeans) estimates at Week 24 for both treatment groups with their corresponding SEs and 95% confidence intervals.
Continuous secondary variables anticipated to have a normal distribution (i.e., lipids other than TGs and Lp(a)) were analyzed using the same MMRM model as for the primary endpoint. […] Combined estimate for mean in both treatment groups, as well as the differences of these estimates, with their corresponding SEs, 95% Cls and p-value were provided (through SAS MIANALYZE procedure).
Binary secondary efficacy endpoints were analyzed using multiple imputation approach for handling of missing values followed by stratified logistic regression with treatment group as main effect and corresponding baseline value(s) as covariate, stratified by randomization factors (as per IVRS). Combined estimates of odds ratio versus placebo, 95% CI, and p-value were provided (through SAS MIANALYZE procedure).

[2] = tested on: high cardiovascular risk patients with hypercholesterolemia; conditions: in vivo
Description: Safety was assessed through adverse event (AE) reporting (including adjudicated cardiovascular events), laboratory analyses, and vital signs measurement. Since the LDL-C-lowering effects of PCSK9 inhibition on top of a statin are unknown, a number of AEs were defined as being of special interest and were monitored, including alanine aminotransferase abnormalities, allergic events, hemolytic anemia, pregnancy, overdose with study drug, neurologic events, ophthalmic events, and local injection site reactions. AEs were determined to be of special interest based on review of previous clinical trials, correspondence with regulatory authorities and the Data Monitoring Committee, the use of a monoclonal antibody in this study, and the route of drug administration.
AEs (including adjudicated cardiovascular events), laboratory parameters, and vital signs were reported descriptively, based on the safety population (all randomized patients who received at least 1 dose or partial dose of study treatment). The safety analysis focused on the treatment-emergent AE period defined as the time from the first double-blind dose to the last double-blind dose of the investigational product +70 days (10 weeks).
The safety population included all randomized patients who received at least one dose or part of a dose of the double-blind IMP.
Safety analyses were descriptive, performed on the safety population according to treatment actually received. For analysis of TEAE and PCSA, the safety analysis focused on the TEAE period defined as the time from the first dose of double-blind IMP up to 70 days after the last double-blind injection.

[3] = Week 24, total PCSK9 levels at or above the median
[4] = Week 24, total PCSK9 levels below the median
[5] = Week 24, ITT population, MMRM, alirocumab 150 Q2W
[6] = subgroup baseline HDL-C <40 mg/dL/<1.04 mmol/L, ITT
[7] = subgroup baseline HDL-C ≧40 mg/dL/≧1.04 mmol/L, ITT
[8] = subgroup baseline calculated LDL-C <100 mg/dL/<2.59 mmol/L, ITT
[9] = subgroup baseline calculated LDL-C ≧160 mg/dL/≧4.14 mmol/L, ITT
[10] = subgroup baseline calculated LDL-C ≧100 to <130 mg/dL/≧2.59 to <3.37 mmol/L, ITT
[11] = subgroup baseline calculated LDL-C ≧130 to <160 mg/dL/≧3.37 to <4.14 mmol/L, ITT

## Alirocumab: human anti-PCSK9 antibody; HCVR SEQ ID NO:1, LCVR SEQ ID NO:6; CDRs SEQ ID NOs 2/3/4/7/8/10
[1]; Week 24, patients with baseline LDL-C <100 mg/dL
  Calculated LDL-C percent change, treatment effect versus placebo: −75.0%
[1]; Week 24, patients with baseline LDL-C ≧160 mg/dL
  Calculated LDL-C percent change, treatment effect versus placebo: −41.3%
[1]; [3]
  Calculated LDL-C percent change, LS mean difference vs placebo: −66.0%
  Calculated LDL-C, LS mean percent change from baseline: −62.1%
[1]; [4]
  Calculated LDL-C percent change, LS mean difference vs placebo: −57.3%
  Calculated LDL-C, LS mean percent change from baseline: −60.1%
[1]; Week 24, women
  Calculated LDL-C percent change, LS mean difference vs placebo: −56.6%
  Calculated LDL-C, LS mean percent change from baseline: −53.4%
[1]; Week 24, ITT population
  Apo A1, LS mean (SE) change from baseline to Week 24 (%): 4.0 (0.4) %
  Apo B, LS mean (SE) change from baseline to Week 24 (%): −52.8 (0.7) %
  Fasting triglycerides, combined estimate for adjusted mean (SE) change from baseline to Week 24 (%): −15.6 (0.8) %
  HDL-C, LS mean (SE) change from baseline to Week 24 (%): 4.0 (0.4) %
  Lipoprotein (a), combined estimate for adjusted mean (SE) change from baseline to Week 24 (%): −29.3 (0.7) %
  Non-HDL-C, LS mean (SE) change from baseline to Week 24 (%): −51.6 (0.6) %
  Proportion (%) of patients reaching calculated LDL-C levels at Week 24: <70 mg/dL (regardless of risk): 79.3%
  Proportion (%) of patients reaching calculated LDL-C levels at Week 24: <70 mg/dL (very high risk) or <100 mg/dL (high risk): 80.7%
  Total cholesterol, LS mean (SE) change from baseline to Week 24 (%): −37.8 (0.5) %
[1]; Week 24, ITT population, MMRM
  Calculated LDL-C Week 24 percent change from baseline, LS mean difference (SE) vs placebo: −61.9 (1.3) %
[1]; [5]
  Calculated LDL-C percent change from baseline, LS mean (SE): −61.0 (0.7) % and −61.0%
  Calculated LDL-C value (absolute level), LS mean (SE): 48.3 (0.9) mg/dL
  Calculated LDL-C value, LS mean (SE): 1.252 mmol/L
[1]; Week 24, ITT, LDL-cholesterol measured by beta-quantification
  LS mean (SE) change from baseline to Week 24 in measured LDL-C: −57.8 (0.8) %
[1]; Week 24, On-treatment
  Apo-B - Percent change from baseline to Week 24, LS mean difference vs. placebo: placebo of −55.5%
  Calculated LDL-C - Percent change from baseline to Week 24, LS mean difference vs. placebo: placebo of −63.5%
  Non-HDL-C - Percent change from baseline to Week 24, LS mean difference vs. placebo: placebo of −53.7%
[1]; Week 24, subgroup baseline calculated LDL-C <100 mg/dL/<2.59 mmol/L, ITT
  LS mean absolute LDL-C reduction: -51.6 mg/dL
[1]; Week 24, subgroup baseline calculated LDL-C ≧160 mg/dL/≧4.14 mmol/L, ITT
  LS mean absolute LDL-C reduction: -115.8 mg/dL
[1]; Week 24, subgroup baseline calculated LDL-C ≧100 to <130 mg/dL/≧2.59 to <3.37 mmol/L, ITT
  LS mean absolute LDL-C reduction: -71.2 mg/dL
[1]; Week 24, subgroup baseline calculated LDL-C ≧130 to <160 mg/dL/≧3.37 to <4.14 mmol/L, ITT
  LS mean absolute LDL-C reduction: -85.3 mg/dL
[1]; Week 36, ITT population, MMRM, alirocumab 150 Q2W
  Calculated LDL-C percent change from baseline, LS mean (SE): −59.5%
[1]; Week 52, ITT population, MMRM, alirocumab 150 Q2W
  Calculated LDL-C percent change from baseline, LS mean (SE): −56.8%
[1]; Week 78
  Additional LDL-C reduction from baseline versus placebo: 56%
[1]; Week 78, ITT population
  Percentage change from baseline to Week 78 in calculated LDL-C: −52.4 (0.9) %
  Percentage change from baseline to Week 78 in calculated LDL-C, LS mean difference (SE) vs placebo: −56.0 (1.6) %
[1]; intention-to-treat, Week 24 (final analysis)
  Percent decrease in LDL cholesterol: 61%
[1]; [6]
  Percent change from baseline in calculated LDL-C at week 24, LS mean difference (SE) vs placebo: −66.1 (2.8) %
  Percent change from baseline in calculated LDL-C at week 24, LS means (SE): −65.5 (1.6) %
[1]; [7]
  Percent change from baseline in calculated LDL-C at week 24, LS mean difference (SE) vs placebo: −60.8 (1.4) %
  Percent change from baseline in calculated LDL-C at week 24, LS means (SE): −59.9 (0.8) %
[1]; [8]
  Percent change from baseline in calculated LDL-C at week 24, LS mean difference (SE) vs placebo: −75.0 (2.2) %
  Percent change from baseline in calculated LDL-C at week 24, LS means (SE): −61.3 (1.3) %
[1]; [9]
  Percent change from baseline in calculated LDL-C at week 24, LS mean difference (SE) vs placebo: −41.3 (3.3) %
  Percent change from baseline in calculated LDL-C at week 24, LS means (SE): −59.5 (1.9) %
[1]; [10]
  Percent change from baseline in calculated LDL-C at week 24, LS mean difference (SE) vs placebo: −62.5 (2.0) %
  Percent change from baseline in calculated LDL-C at week 24, LS means (SE): −62.0 (1.2) %
[1]; [11]
  Percent change from baseline in calculated LDL-C at week 24, LS mean difference (SE) vs placebo: −54.6 (2.9) %
  Percent change from baseline in calculated LDL-C at week 24, LS means (SE): −59.8 (1.7) %
[2]
  SOC infections and infestations: 37.2%
  Urinary tract infection (TEAE preferred term): 13 (6.3) No. (%) of patients
